Assay results published in patent publication US20240360179A1, “STAPLED PEPTIDES AND METHODS THEREOF” (FOG PHARMACEUTICALS, INC., priority 2021, published 2024).

Test system: COLO320DM cells
Assay: COLO320DM proliferation assay (CellTiter-Glo)
Format: cell-based, human
Conditions: absolute IC50, read-out: COLO320DM Proliferation Abs IC50
Description: COLO320DM proliferation assay IC50: In some embodiments, inhibition of cell proliferation by provided technologies were assessed using cell lines related to or from certain conditions, disorders or diseases. In some embodiments, cell proliferation was assessed in COLO320DM cells. In some embodiments, assessment was performed using the following procedure: On Day 1, cultured COLO320DM cells in a T75 flask were trypsinized in 3 mL of 0.250% trypsin/EDTA for 5 min and quenched with 10 mL RPMI-1640+4% HI FBS assay media. The cells were spun down at 1200 rpm for 5 min, the cell pellet collected and re-suspended at 5000 cells/mL in assay media. Using a Combi liquid handler, cells were dispensed (50 uL, 250 cells/well) into three 384 well plates. Plates were incubated at 37° C., 5% CO2 for 18-22 h. On day 2, compounds were added. A liquid handling system was used to prepare the compound dilution and dispense compound into assay plates. The compounds were serially diluted 1/2 in 90% DMSO to create a 7 point dose curve. From compound plate, 100 nL of compound were dispensed directly into wells of the assay plates to create a dose curve starting at 20 uM and ending at 313 nM. Assay plates were incubated at 37° C., 5% CO2 for 96 h. On day 6, assay plates were removed from the incubator and allowed to sit at room temperature for 30 min. Using a liquid handler, 20 uL of CellTiter Glo reagent was added to each well. The assay plates were shaken for 2 min and allowed to sit on the bench for 10-15 minutes. The assay plates were read using the CellTiter Glo protocol on a GloMax microplate reader, and the data analyzed using GraphPad Prism. Activities of various agents, including various stapled peptides in Table E2, were confirmed.
In some embodiments, an assessment was performed as follows. On day 0, cells were seeded in cell culture media (RPMI1640, 4% FBS) in a 96-well plate at desired density, typically at 1000 cells/well. On day 1, 10 mM agent stock solution (in DMSO) was first serially diluted into DMSO at 1:2 ratio, followed by diluting with cell culture media at two times of the final concentrations. Finally, agent-containing media were introduced to cell culture wells already having the same volume of cell culture media. Cells were incubated with agents for desired days before lysed for CellTiter-Glo® Luminescent Cell Viability Assay according to the manufacture instruction (Promega, G7570). Luminescent signal was obtained from a microplate reader (GloMax, Promega). Cell viability data was expressed as % relative to DMSO control wells.
Proliferation Assay. In some embodiments, various proliferation assays are utilized to characterize or assess provided technologies. In some embodiments, on day 0, cells were seeded in cell culture media in a 96-well plate at desired density, typically at 1000 cells/well. On day 1, 10 mM compound stock solution was first serially diluted into DMSO, followed by diluting with cell culture media at two times of the final concentrations. Finally, compound-containing media were introduced to cell culture wells already having the same volume of cell culture media. Cells were incubated with compounds for desired days before lysed for CTG according to the manufacture instruction (G7570, Promega). Luminescent signal was obtained from a microplate reader (GloMax, Promega).

For `CC(=O)N1CCC[C@]12CC=CCCCC1(CCCC=CCCCOC(=O)N3CC[C@@]4(C3)NC(=O)[C@H](CCCCNC(=O)CC[C@@H](C(=O)N[C@@H](C)C(N)=O)NC(=O)[C@H](Cc3csc5ccccc35)NC(=O)[C@H](Cc3ccsc3)NC4=O)NC(=O)[C@H](Cc3ccccc3)NC(=O)[C@H](C)NC(=O)C(C)(C)NC(=O)[C@H](Cc3cccc(C(=O)O)c3)NC(=O)[C@H](CC(=O)O)NC1=O)NC(=O)[C@H](CCCN1CCOCC1)NC(=O)[C@H](CC(=O)O)NC2=O` (relative stereo) [I-313, Ac-PL3-Asp-MorphNva-B5-Asp-3COOHF-Aib-Ala-Phe-Lys*3-PyrS2-3Thi-BztA-GlnR*3-Ala-NH2], which IC50 is on record?
Its IC50 is greater than 20 µM.

`CC(=O)N1CCC[C@]12CC=CCCCC1(CCCC=CCCCOC(=O)N3CC[C@@]4(C3)NC(=O)[C@H](CCCCNC(=O)CC[C@@H](C(=O)N[C@@H](C)C(N)=O)NC(=O)[C@H](Cc3csc5ccccc35)NC(=O)[C@H](Cc3ccsc3)NC4=O)NC(=O)[C@H](Cc3ccccc3)NC(=O)[C@H](C)NC(=O)[C@H](Cc3ccccc3)NC(=O)[C@H](Cc3cccc(C(=O)O)c3)NC(=O)[C@H](CC(=O)O)NC1=O)NC(=O)[C@H](CC(C)(C)C)NC(=O)[C@H](CC(=O)O)NC2=O` (relative stereo) [I-386, Ac-PL3-Asp-Npg-B5-Asp-3COOHF-Phe-Ala-Phe-Lys*3-PyrS2-3Thi-BztA-GlnR*3-Ala-NH2] was tested. Which IC50 did it give?
The IC50 was greater than 20 µM.

For `CC(=O)N1CCC[C@]12CC=CCCCC1(CCCC=CCCCOC(=O)N3CC[C@@]4(C3)NC(=O)[C@H](CSCc3cccc(c3)CSC[C@@H](C(=O)N[C@@H](C)C(N)=O)NC(=O)[C@H](Cc3csc5ccccc35)NC(=O)[C@H](Cc3ccccc3C(F)(F)F)NC4=O)NC(=O)[C@H](Cc3ccccc3)NC(=O)[C@H](C)NC(=O)C(C)(C)NC(=O)[C@H](Cc3cccc(C(=O)O)c3)NC(=O)[C@H](CC(=O)O)NC1=O)NC(=O)[C@H](CC(C)(C)C)NC(=O)[C@H](CC(=O)O)NC2=O` (stereo partly drawn) [I-375, Ac-PL3-Asp-Npg-B5-Asp-3COOHF-Aib-Ala-Phe-[mXyl]Cys-PyrS2-2F3MeF-BztA-Cys-Ala-NH2], which IC50 is on record?
Its IC50 is no more than 10 µM.

Same assay, conditions: read-out: COLO320DM Proliferation Abs IC50

With “2IAPAc-PL3-Asp-Npg-B5-Asp-3COOHF-Aib-Ala-Phe-Lys*3-PyrS2-3Thi-BztA-GlnR*3-Ala-NH2 [I-1064]” as the molecule, how does the IC50 read?
The IC50 was greater than 20 µM.

“124TriAc-PL3-Asp-Npg-B5-Asp-3COOHF-Aib-Ala-Phe-Lys*3-PyrS2-3Thi-BztA-GlnR*3-Ala-NH2 [I-1075]” was tested. Which IC50 did it give?
The IC50 was greater than 20 µM.

How did the IC50 turn out when `CC(=O)N1CCC[C@@]1(C)C(=O)N[C@@H](CC(=O)O)C(=O)N[C@H](C(=O)N[C@]1(C)CCCCCCCCOC(=O)N2CC[C@@]3(C2)NC(=O)[C@H](CCCCNC(=O)CC[C@@H](C(=O)N[C@@H](C)C(N)=O)NC(=O)[C@H](Cc2csc4ccccc24)NC(=O)[C@H](Cc2ccsc2)NC3=O)NC(=O)[C@H](Cc2ccccc2)NC(=O)[C@H](C)NC(=O)C(C)(C)NC(=O)[C@H](Cc2cccc(C(=O)O)c2)NC(=O)[C@H](CC(=O)O)NC1=O)C(C)C` (relative stereo) [I-237, Ac-MePro-Asp-Val-R5-Asp-3COOHF-Aib-Ala-Phe-Lys*3-PyrS2-3Thi-BztA-GlnR*3-Ala-NH2] was run?
The IC50 was greater than 20 µM.

`CCCC[C@@H]1NC(=O)[C@H](CC(=O)O)NC(=O)[C@]2(CC=CCCCC3(CCCC=CCCCOC(=O)N4CC[C@@]5(C4)NC(=O)[C@H](CCCCNC(=O)CC[C@@H](C(=O)N[C@@H](C)C(N)=O)NC(=O)[C@H](Cc4csc6ccccc46)NC(=O)[C@H](Cc4ccsc4)NC5=O)NC(=O)[C@H](Cc4ccccc4)NC(=O)[C@H](C)NC(=O)C(C)(C)NC(=O)[C@H](Cc4cccc(C(=O)O)c4)NC(=O)[C@H](CC(=O)O)NC3=O)NC1=O)CCCN2C(C)=O` (relative stereo) [I-245, Ac-PL3-Asp-nLeu-B5-Asp-3COOHF-Aib-Ala-Phe-Lys*3-PyrS2-3Thi-BztA-GlnR*3-Ala-NH2] was tested. Which IC50 did it give?
The IC50 was no more than 10 µM.

With `CC(=O)N1CCC[C@]12CC=CCCCC1(CCCC=CCCCOC(=O)N3CC[C@@]4(C3)NC(=O)[C@H](CCCCNC(=O)CC[C@@H](C(=O)N[C@@H](C)C(N)=O)NC(=O)[C@H](Cc3csc5ccccc35)NC(=O)[C@H](Cc3ccccc3C)NC4=O)NC(=O)[C@H](Cc3ccccc3)NC(=O)[C@H](C)NC(=O)C(C)(C)NC(=O)[C@H](Cc3cccc(C(=O)O)c3)NC(=O)[C@H](CC(=O)O)NC1=O)NC(=O)[C@H](CC(C)(C)C)NC(=O)[C@H](CC(=O)O)NC2=O` (relative stereo) [I-294, Ac-PL3-Asp-Npg-B5-Asp-3COOHF-Aib-Ala-Phe-Lys*3-PyrS2-2MeF-BztA-GlnR*3-Ala-NH2] as the molecule, how does the IC50 read?
The IC50 was no more than 10 µM.

How did the IC50 turn out when `CC(=O)N1CCC[C@]12CC=CCCCC1(CCCC=CCCCOC(=O)N3CC[C@@]4(C3)NC(=O)[C@H](CCCCNC(=O)CC[C@@H](C(=O)N[C@@H](C)C(N)=O)NC(=O)[C@H](Cc3csc5ccccc35)NC(=O)[C@H](Cc3ccccn3)NC4=O)NC(=O)[C@H](Cc3ccccc3)NC(=O)[C@H](C)NC(=O)C(C)(C)NC(=O)[C@H](Cc3cccc(C(=O)O)c3)NC(=O)[C@H](CC(=O)O)NC1=O)NC(=O)[C@H](CC(C)(C)C)NC(=O)[C@H](CC(=O)O)NC2=O` (relative stereo) [I-299, Ac-PL3-Asp-Npg-B5-Asp-3COOHF-Aib-Ala-Phe-Lys*3-PyrS2-2PyrA-BztA-GlnR*3-Ala-NH2] was run?
Its IC50 is 10 to 20 µM.

For `CC(=O)N1CCC[C@]12CC=CCCCC1(CCCC=CCCCOC(=O)N3CC[C@@]4(C3)NC(=O)[C@H](CCCCNC(=O)CC[C@@H](C(=O)N[C@@H](C)C(N)=O)NC(=O)[C@H](Cc3csc5ccccc35)NC(=O)[C@H](Cc3cccnc3)NC4=O)NC(=O)[C@H](Cc3ccccc3)NC(=O)[C@H](C)NC(=O)C(C)(C)NC(=O)[C@H](Cc3cccc(C(=O)O)c3)NC(=O)[C@H](CC(=O)O)NC1=O)NC(=O)[C@H](CC(C)(C)C)NC(=O)[C@H](CC(=O)O)NC2=O` (relative stereo) [I-300, Ac-PL3-Asp-Npg-B5-Asp-3COOHF-Aib-Ala-Phe-Lys*3-PyrS2-3PyrA-BztA-GlnR*3-Ala-NH2], which IC50 is on record?
The IC50 was greater than 20 µM.

How did the IC50 turn out when `CC(=O)N1CCC[C@]12CC=CCCCC1(CCCC=CCCCOC(=O)N3CC[C@@]4(C3)NC(=O)[C@H](CCCCNC(=O)CC[C@@H](C(=O)N[C@@H](C)C(N)=O)NC(=O)[C@H](Cc3csc5ccccc35)NC(=O)[C@H](Cc3ccncc3)NC4=O)NC(=O)[C@H](Cc3ccccc3)NC(=O)[C@H](C)NC(=O)C(C)(C)NC(=O)[C@H](Cc3cccc(C(=O)O)c3)NC(=O)[C@H](CC(=O)O)NC1=O)NC(=O)[C@H](CC(C)(C)C)NC(=O)[C@H](CC(=O)O)NC2=O` (relative stereo) [I-301, Ac-PL3-Asp-Npg-B5-Asp-3COOHF-Aib-Ala-Phe-Lys*3-PyrS2-4PyrA-BztA-GlnR*3-Ala-NH2] was run?
The IC50 was greater than 20 µM.

`CC(=O)N1CCC[C@]12CC=CCCCC1(CCCC=CCCCOC(=O)N3CC[C@@]4(C3)NC(=O)[C@H](CCCCNC(=O)CC[C@@H](C(=O)N[C@@H](C)C(N)=O)NC(=O)[C@H](Cc3csc5ccccc35)NC(=O)[C@H](Cc3ccsc3)NC4=O)NC(=O)[C@H](Cc3ccccc3)NC(=O)[C@H](C)NC(=O)C(C)(C)NC(=O)[C@H](Cc3cccc(C(=O)O)c3)NC(=O)[C@H](CC(=O)O)NC1=O)NC(=O)[C@H](C)NC(=O)[C@H](CC(=O)O)NC2=O` (relative stereo) [I-304, Ac-PL3-Asp-Ala-B5-Asp-3COOHF-Aib-Ala-Phe-Lys*3-PyrS2-3Thi-BztA-GlnR*3-Ala-NH2] was tested. Which IC50 did it give?
The IC50 was no more than 10 µM.

Which IC50 does the source give for `CC(=O)N1CCC[C@]12CC=CCCCC1(CCCC=CCCCOC(=O)N3CC[C@@]4(C3)NC(=O)[C@H](CCCCNC(=O)CC[C@@H](C(=O)N[C@@H](C)C(N)=O)NC(=O)[C@H](Cc3csc5ccccc35)NC(=O)[C@H](Cc3ccsc3)NC4=O)NC(=O)[C@H](Cc3ccccc3)NC(=O)[C@H](C)NC(=O)C(C)(C)NC(=O)[C@H](Cc3cccc(C(=O)O)c3)NC(=O)[C@H](CC(=O)O)NC1=O)NC(=O)[C@H](C1CCCCC1)NC(=O)[C@H](CC(=O)O)NC2=O` (single isomer, unassigned) [I-253, Ac-PL3-Asp-Chg-B5-Asp-3COOHF-Aib-Ala-Phe-Lys*3-PyrS2-3Thi-BztA-GlnR*3-Ala-NH2] here?
The IC50 was no more than 10 µM.

With “Ac-PL3-Asp-Cha-B5-Asp-3COOHF-Ala-Ala-Phe-Lys*3-PyrS2-2ClF-BztA-GlnR*3-NH2 [I-1528]” as the molecule, how does the IC50 read?
The IC50 was no more than 10 µM.

For “Ac-PL3-Asp-Cha-B5-Asp-3COOHF-CyLeu-Ala-Phe-Lys*3-PyrS2-3Thi-34ClF-GlnR*3-NH2 [I-1047]”, which IC50 is on record?
Its IC50 is no more than 10 µM.

With “Ac-PL3-Asp-Chg-B5-Asp-3COOHF-Aib-Ala-Phe-Lys*3-PyrS2-2ClF-34ClF-GlnR*3-NH2 [I-1505]” as the molecule, how does the IC50 read?
Its IC50 is no more than 10 µM.
